Experimental data as given in PMC7926352, “Synthesis, Characterization and In Vitro Evaluation of Novel 5-Ene-thiazolo[3,2-b][1,2,4]triazole-6(5H)-ones as Possible Anticancer Agents” (Molecules, 2021).

What was measured:
[1] = tested on: Ovarian Cancer cell lines
[2] = tested on: Prostate Cancer cell lines; parameters: LC50, values range inside panel: unit not given beside the values
CNS Cancer cell lines = tested on: CNS Cancer cell lines; parameters: LC50, values range inside panel: unit not given beside the values
IGROV1 = type: cell-based, human; settings: IGROV1, Ovarian Cancer
[3] = tested on: panel of approximately sixty human tumor cell lines; assay: NCI-60 human tumor cell lines screen (SRB), full panel; type: cell-based

In the case of “Ethyl(Z)-4-(3-(4-chloro-2-((6-oxothiazolo[3,2-b][1,2,4]triazol-5(6H)-ylidene)methyl)phenyl)propanamido)benzoate [Compound 2i]”, the CC50 (CCRF-CEM) was > 100 µM, the CC50 (CAKI-1) was 55 µM and the CC50 [1] was 68.7 µM. It also gave a CC50 (NCI-H460) of 56.2 µM, a CC50 (SK-MEL-2) of 77.6 µM and a CC50 (SF-539) of 50.1 µM. For the same substance, the CC50 (Breast Cancer cell lines) was 73.2 µM, the CC50 (HS 578T) was 60.2 µM and the CC50 (MDA-MB-231/ATCC) was > 100 µM. The CC50 (A498) was 56.2 µM, the CC50 (SK-MEL-5) was 46.8 µM and the CC50 (MCF7) was 50.1 µM. It also gave a CC50 (SW-620) of 46.8 µM, a CC50 (ACHN) of 53.7 µM and a CC50 (786-0) of 51.3 µM. For the same substance, the CC50 (HOP-92) was 83.2 µM, the CC50 (RXF 393) was 58.9 µM and the CC50 [2] was 68.2 µM. The “LC50, values range inside panel” value [2] was 36.30– >100, the CC50 (HCT-15) was 55 µM and the CC50 (RPMI-8226) was 95.5 µM. For the same substance, the CC50 (UO-31) was 55 µM, the CC50 (MOLT-4) was > 100 µM and the CC50 (SF-295) was 51.3 µM. The CC50 (HCC-2998) was 66.1 µM, the CC50 (Melanoma cell lines) was 42.6 to 77.6 µM and the CC50 (TK-10) was 51.3 µM. It also gave a CC50 (HT29) of 49 µM, a CC50 (U251) of 43.6 µM and a CC50 (EKVX) of 50.1 µM. The CC50 (NCI-H522) was 72.4 µM, the CC50 (HOP-62) was 53.7 µM and the CC50 (PC-3) was > 100 µM. It also gave a CC50 (UACC-257) of 63.1 µM, a CC50 (Renal Cancer cell lines) of 55 µM and a CC50 (HCT-116) of 55 µM. The CC50 (K-562) was > 100 µM, the CC50 (UACC-62) was 51.3 µM and the CC50 (DU-145) was 36.3 µM. For the same substance, the CC50 (NCI/ADR-RES) was > 100 µM, the CC50 (LOX IMVI) was 42.6 µM and the CC50 (CNS Cancer cell lines) was 66.2 µM. The “LC50, values range inside panel” value (CNS Cancer cell lines) was 43.65– >100, the CC50 (SK-OV-3) was 61.6 µM and the CC50 (SF-268) was > 100 µM. It also gave a CC50 (MALME-3M) of 53.7 µM, a GI50 (IGROV1) of 6.6 µM and a TGI (IGROV1) of 20.89 µM. The CC50 (SR) was > 100 µM and the CC50 [3] was 63.1 µM.
